# Data: article PMC12920416, “Preclinical development of [^18F]TAAR1-2203 as a PET radioligand for imaging TAAR1 expression and receptor occupancy” (European Journal of Nuclear Medicine and Molecular Imaging, 2025)
# Key:
# mouse TAAR1 = mouse TAAR1 (Mus musculus, UniProt Q923Y8); experiment: Competition binding assay, mouse TAAR1
# rat TAAR1 = rat TAAR1 (Rattus norvegicus, UniProt Q923Y9); experiment: Competition binding assay, rat TAAR1
# TAAR1 [1] = experiment: Competition binding assay, cynomolgus monkey TAAR1
# TAAR1 [2] = target: T1, TAAR1 (Homo sapiens, UniProt Q96RJ0); experiment: Competition binding assay, human TAAR1
# T1 sequence (Q96RJ0 1-339): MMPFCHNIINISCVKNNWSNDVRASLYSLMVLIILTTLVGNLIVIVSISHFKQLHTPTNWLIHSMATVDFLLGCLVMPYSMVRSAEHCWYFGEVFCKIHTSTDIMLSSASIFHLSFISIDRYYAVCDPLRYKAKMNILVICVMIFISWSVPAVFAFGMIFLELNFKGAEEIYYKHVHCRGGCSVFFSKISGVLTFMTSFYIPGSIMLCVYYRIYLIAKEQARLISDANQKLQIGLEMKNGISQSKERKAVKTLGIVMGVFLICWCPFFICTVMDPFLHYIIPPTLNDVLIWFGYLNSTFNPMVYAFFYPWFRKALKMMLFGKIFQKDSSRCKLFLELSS
# [3] = Plasma stability of non-radioactive reference, mouse plasma; assay type: in vitro ADME; settings: 37 °C, up to 5 h
# [4] = Plasma stability of non-radioactive reference, rat plasma; assay type: in vitro ADME; settings: 37 °C, up to 5 h
# [5] = Plasma stability of non-radioactive reference, non-human primate plasma; assay type: in vitro ADME; settings: 37 °C, up to 5 h
# [6] = Plasma stability of non-radioactive reference, human plasma; assay type: in vitro ADME; settings: 37 °C, up to 5 h
# [7] = 4-week repeat dose toxicity study, dogs; assay type: in vivo; settings: 4-week repeat dose toxicity study
# [8] = 4-week repeat dose toxicity study, rats; assay type: in vivo; settings: 4-week repeat dose toxicity study
# Aqueous solubility = assay type: physicochemical; settings: pH 6.5 in 0.05 M phosphate buffer
# Source text: (§1) ^a Aqueous solubility at pH 6.5 in 0.05 M phosphate buffer; ^b pH 7.4
# [9] = logD (physicochemical profiling); settings: pH 7.4
# Source text: as §1
# PAMPA permeability = assay type: in vitro ADME
# Source text: (§2) Supplement 259_2025_7564_MOESM1_ESM.docx, table 1: Supplemental Table 1. Physicochemical properties of TAAR1-2203. | column: 194.2
# [10] = Chemical stability in aqueous buffer; assay type: physicochemical; settings: pH 1, 4, 6.5 and 8 for 2 h at 37 °C
# Source text: as §2
# [11] = Clearance in human liver microsomes; assay type: in vitro ADME
# Source text: (§3) Supplement 259_2025_7564_MOESM1_ESM.docx, table 2: Supplemental Table 2. ADME profile of TAAR1 ligand TAAR1-2203. | column: 14 / 10
# [12] = Clearance in rat liver microsomes; assay type: in vitro ADME
# Source text: as §3
# [13] = Clearance in human hepatocytes; assay type: in vitro ADME
# Source text: as §3
# [14] = Clearance in rat hepatocytes; assay type: in vitro ADME
# Source text: as §3
# [15] = Plasma protein binding of TAAR1-2203, human plasma; assay type: in vitro ADME
# [16] = Plasma protein binding of TAAR1-2203, rat plasma; assay type: in vitro ADME
# human P-glycoprotein = human P-glycoprotein (Homo sapiens, UniProt P08183); experiment: P-glycoprotein efflux assay, human P-gp; assay type: in vitro ADME
# Sequence of human P-glycoprotein (P08183 whole entry): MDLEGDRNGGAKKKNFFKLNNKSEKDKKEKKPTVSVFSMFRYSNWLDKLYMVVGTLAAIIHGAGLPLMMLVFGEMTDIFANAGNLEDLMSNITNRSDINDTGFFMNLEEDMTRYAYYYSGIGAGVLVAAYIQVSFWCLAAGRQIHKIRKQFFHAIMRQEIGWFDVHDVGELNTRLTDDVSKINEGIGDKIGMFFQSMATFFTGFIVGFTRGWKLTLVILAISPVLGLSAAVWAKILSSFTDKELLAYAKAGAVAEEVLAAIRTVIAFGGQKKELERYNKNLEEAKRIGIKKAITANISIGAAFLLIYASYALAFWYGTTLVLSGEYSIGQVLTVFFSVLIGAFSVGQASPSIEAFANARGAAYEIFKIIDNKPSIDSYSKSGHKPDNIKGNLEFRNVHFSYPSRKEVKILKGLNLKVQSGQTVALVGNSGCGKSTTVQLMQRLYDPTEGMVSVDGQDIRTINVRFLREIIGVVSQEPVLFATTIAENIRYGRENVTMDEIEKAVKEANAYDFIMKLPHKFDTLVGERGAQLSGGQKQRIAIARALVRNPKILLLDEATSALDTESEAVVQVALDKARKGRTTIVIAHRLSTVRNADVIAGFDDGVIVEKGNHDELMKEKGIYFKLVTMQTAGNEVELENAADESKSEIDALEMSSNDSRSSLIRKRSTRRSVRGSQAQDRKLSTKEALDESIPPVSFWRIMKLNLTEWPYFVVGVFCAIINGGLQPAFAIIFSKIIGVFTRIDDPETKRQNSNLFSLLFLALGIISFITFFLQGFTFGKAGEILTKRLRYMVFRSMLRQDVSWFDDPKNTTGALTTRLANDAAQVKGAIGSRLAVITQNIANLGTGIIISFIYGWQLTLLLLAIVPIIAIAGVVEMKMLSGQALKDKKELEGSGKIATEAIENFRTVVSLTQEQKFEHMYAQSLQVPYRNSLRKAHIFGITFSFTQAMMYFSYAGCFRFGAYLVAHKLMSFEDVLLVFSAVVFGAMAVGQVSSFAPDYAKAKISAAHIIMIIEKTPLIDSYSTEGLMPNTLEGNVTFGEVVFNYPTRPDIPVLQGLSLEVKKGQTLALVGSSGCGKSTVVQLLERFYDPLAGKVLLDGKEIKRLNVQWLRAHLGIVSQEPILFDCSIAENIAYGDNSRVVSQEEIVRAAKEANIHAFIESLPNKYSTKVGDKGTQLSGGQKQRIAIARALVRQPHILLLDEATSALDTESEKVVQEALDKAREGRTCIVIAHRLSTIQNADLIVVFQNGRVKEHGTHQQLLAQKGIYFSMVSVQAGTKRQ
# mouse P-glycoprotein = mouse P-glycoprotein (Mus musculus, UniProt P21447); experiment: P-glycoprotein efflux assay, mouse P-gp; assay type: in vitro ADME
# Sequence of mouse P-glycoprotein (P21447 whole entry): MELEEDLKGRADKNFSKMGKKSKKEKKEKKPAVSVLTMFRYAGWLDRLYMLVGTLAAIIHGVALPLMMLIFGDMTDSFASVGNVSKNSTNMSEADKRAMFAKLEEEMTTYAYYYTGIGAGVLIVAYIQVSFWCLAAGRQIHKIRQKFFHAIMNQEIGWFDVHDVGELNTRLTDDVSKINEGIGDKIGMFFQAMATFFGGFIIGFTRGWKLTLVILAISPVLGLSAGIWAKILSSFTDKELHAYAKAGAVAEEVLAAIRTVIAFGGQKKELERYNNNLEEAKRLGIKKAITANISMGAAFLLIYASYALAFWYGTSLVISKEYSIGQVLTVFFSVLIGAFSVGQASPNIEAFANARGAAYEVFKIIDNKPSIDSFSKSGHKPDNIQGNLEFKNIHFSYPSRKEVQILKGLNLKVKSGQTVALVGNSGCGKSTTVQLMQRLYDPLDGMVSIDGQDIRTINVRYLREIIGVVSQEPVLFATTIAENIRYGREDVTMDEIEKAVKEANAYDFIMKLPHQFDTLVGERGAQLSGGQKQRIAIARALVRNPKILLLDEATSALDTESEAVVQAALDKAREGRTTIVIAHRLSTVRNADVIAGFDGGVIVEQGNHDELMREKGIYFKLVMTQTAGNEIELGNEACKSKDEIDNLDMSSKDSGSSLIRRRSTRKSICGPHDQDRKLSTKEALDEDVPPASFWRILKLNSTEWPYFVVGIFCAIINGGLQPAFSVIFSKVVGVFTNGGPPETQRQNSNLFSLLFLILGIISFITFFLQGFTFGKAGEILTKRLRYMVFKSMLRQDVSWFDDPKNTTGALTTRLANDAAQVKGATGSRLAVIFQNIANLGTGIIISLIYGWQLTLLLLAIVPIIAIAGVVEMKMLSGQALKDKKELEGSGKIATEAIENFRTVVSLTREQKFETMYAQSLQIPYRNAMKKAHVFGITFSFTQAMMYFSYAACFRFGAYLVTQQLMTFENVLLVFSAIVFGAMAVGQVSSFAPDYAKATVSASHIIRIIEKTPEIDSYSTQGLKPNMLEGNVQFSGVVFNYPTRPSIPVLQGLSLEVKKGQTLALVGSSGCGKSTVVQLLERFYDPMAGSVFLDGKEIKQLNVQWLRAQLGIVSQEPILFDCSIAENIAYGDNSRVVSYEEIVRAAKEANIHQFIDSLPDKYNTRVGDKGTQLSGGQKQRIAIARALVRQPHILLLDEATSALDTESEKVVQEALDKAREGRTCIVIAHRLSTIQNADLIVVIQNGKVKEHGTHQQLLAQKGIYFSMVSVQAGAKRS
# Sequence of rat TAAR1 (Q923Y9 whole entry): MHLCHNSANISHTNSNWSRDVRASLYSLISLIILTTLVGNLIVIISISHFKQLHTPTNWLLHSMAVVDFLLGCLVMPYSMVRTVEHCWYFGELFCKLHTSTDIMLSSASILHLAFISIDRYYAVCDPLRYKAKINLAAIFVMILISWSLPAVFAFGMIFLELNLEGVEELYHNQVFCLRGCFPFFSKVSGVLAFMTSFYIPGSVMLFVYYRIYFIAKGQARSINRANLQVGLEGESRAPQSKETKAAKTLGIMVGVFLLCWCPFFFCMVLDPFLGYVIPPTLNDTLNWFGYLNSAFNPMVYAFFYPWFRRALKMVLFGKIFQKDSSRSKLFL
# Sequence of mouse TAAR1 (Q923Y8 whole entry): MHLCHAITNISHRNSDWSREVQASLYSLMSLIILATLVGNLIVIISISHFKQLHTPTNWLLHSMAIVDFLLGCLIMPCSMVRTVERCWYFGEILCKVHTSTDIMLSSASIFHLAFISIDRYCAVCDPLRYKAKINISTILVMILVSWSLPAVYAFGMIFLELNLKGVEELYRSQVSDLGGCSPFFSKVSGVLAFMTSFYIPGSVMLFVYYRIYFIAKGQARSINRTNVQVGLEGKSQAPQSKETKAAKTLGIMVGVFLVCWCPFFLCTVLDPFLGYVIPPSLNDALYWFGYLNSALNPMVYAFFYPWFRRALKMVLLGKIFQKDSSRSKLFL
compound,measurement,setting,value
Cc1c(F)cccc1[C@H]1COC(N)=N1 [TAAR1-2203],Ki,mouse TAAR1,0.9 nM
same,Ki,rat TAAR1,7.4 nM
same,Ki,TAAR1 [1],22.5 nM
same,Ki,TAAR1 [2],5.7 nM
same,Stability in mouse plasma,[3],No degradation was observed
same,Stability in rat plasma,[4],No degradation was observed
same,Stability in non-human primate plasma,[5],No degradation was observed
same,Stability in human plasma,[6],No degradation was observed
same,"Doses well tolerated without adverse events, dogs",[7],up to 3 mg/kg
same,"Doses well tolerated without adverse events, rats",[8],≤ 10 mg/kg
same,Solubility,Aqueous solubility,210 µg/mL
same,logD,[9],1.12
same,PAMPA Peff,PAMPA permeability,14.5 cm/s*10E^-6
same,Chemical stability in aqueous buffer,[10],"Stable at pH 1, 4, 6.5 and 8 for 2 h at 37 °C"
same,human clearance in microsomes,[11],14 µL/min/mg protein
same,rat clearance in microsomes,[12],10 µL/min/mg protein
same,human clearance in hepatocytes,[13],10 µL/min/10E6 cells
same,rat clearance in hepatocytes,[14],1.7 µL/min/10E6 cells
same,human plasma free fraction,[15]; human,62%
same,Free fraction in human plasma,[15]; non-radioactive TAAR1-2203,approximately 60%
same,Free fraction in rodent plasma,[16]; non-radioactive TAAR1-2203,approximately 60%
same,Free fraction in rat plasma,[16]; rat,61%
same,"Papp, AB inhibitor, human P-glycoprotein assay",human P-glycoprotein,412 nm/s
same,human P-glycoprotein efflux ratio,human P-glycoprotein,1.2
same,"Papp, AB inhibitor, mouse P-glycoprotein assay",mouse P-glycoprotein,316 nm/s
same,mouse P-glycoprotein efflux ratio,mouse P-glycoprotein,1.0
